Results from patent US12109215B2, “Combination therapies for inhibition of polo-like kinase 4” (UNIVERSITY HEALTH NETWORK, priority 2017, dated 2024).

Columns and labels:
[1] = test system: CT26 tumor; assay: Established CT26 tumor treatment in BALB/cJ mice (tumor volume, regression); format: in vivo
Procedure: (§1) BALB/cJ mice were inoculated subcutaneously with 1×10^6 CT26 cells, and C57BL/6 mice were inoculated subcutaneously with 0.5×10^6 MC38 cells. The mice were then randomized. Animal weights were monitored daily, and tumor volume was measured three times per week.
(§2) […] was defined as 100×[1−TVf,treated−TVi,treated)/(TVf,control−TVi,control)], where TVf is the average tumor volume at the end of study and TVi is the average tumor volume at the end initiation of treatment. In cases in which tumor regression occurred, percentage of tumor regression was defined as 100×[1−(TVf,treated/TVi,treated)]. At the completion of each study, the mice were killed by an anesthetic overdose, and tumor tissue was removed for further analysis.
Treatments were initiated when tumor volumes reached an average size of ˜60 mm^3. To treat an established CT26 or MC38 tumor, the animals were first assigned into groups, i.e., the control group receiving rat IgG2a isotype control, the group receiving the compound CFI-400945 monotherapy, the group receiving the rat IgG2a anti-PD-1 antibody monotherapy and the group receiving the combination therapy.
The compound CFI-400945 and the vehicle (water) were administered by oral gavage (PO), at one of the following dosages: (i) 6.5 mg/kg once daily (QD) for 21 days; (ii) 13 mg/kg twice a week (BIW or 2 on/5 off) for 21 days; (iii) 52 mg/kg once weekly (QW) for 21 days; and (iv) 104 mg/kg in two doses, i.e., on Days 0 and 14.
(§3) The anti-PD-1 antibody or the isotype control were administered by intraperitoneal (IP) injection. 150 μg anti-PD-1 antibody was administered in four doses, i.e., on Days 0, 3, 6 and 10.

[2] = Tolerability in the CT26 tumor study (body weight, animal death); format: in vivo
Procedure: as §1, §3

[3] = test system: CT26 cells; assay: Re-challenge by inoculation with CT26 cells on Day 36 of animals with complete regression; format: in vivo, BALB/cJ mice
Procedure: Further to the tumor volume measurements, the animals in which complete regression had occurred as described above, either by CFI-400945 monotherapy or by IgG2a anti-PD-1 antibody-CFI-400945 combination therapy, were re-challenged by inoculation with CT26 cells on Day 36, as shown in FIGS. 1D (6.5 mg/kg QD CFI-400945+anti-PD-1 antibody), 1E (13 mg/kg BIW CFI-400945), 1F (13 mg/kg BIW CFI-400945+anti-PD-1 antibody), 1G (52 mg/kg QW CFI-400945), 1H (52 mg/kg QW CFI-400945+anti-PD-1 antibody) and 1J (104 mg/kg CFI-400945 on Days 0 and 14+anti-PD-1 antibody).

[4] = test system: MC38 tumor; assay: Established MC38 tumor treatment in C57BL/6 mice (tumor volume, regression); format: in vivo; details: first batch of MC38 experiments; CFI-400945 6.5 mg/kg once daily for 21 days, alone (FIG. 2C) or with anti-PD-1 antibody 150 μg Days 0, 3, 6, 10 (FIG. 2D)
Procedure: as §1, §2
Treatments were initiated when tumor volumes reached an average size of ˜60 mm^3. To treat an established CT26 or MC38 tumor, the animals were first assigned into groups, i.e., the control group receiving rat IgG2a isotype control, the group receiving the compound CFI-400945 monotherapy, the group receiving the rat IgG2a anti-PD-1 antibody monotherapy and the group receiving the combination therapy. […]

[5] = CFI-400945 104 mg/kg PO on Days 0 and 14

SMILES: COc1ccc2c(c1)[C@]1(C[C@H]1c1ccc3c(/C=C/c4ccc(CN5C[C@@H](C)O[C@@H](C)C5)cc4)n[nH]c3c1)C(=O)N2 [CFI-400945]
- complete regression of CT26 tumors ([1]; CFI-400945 6.5 mg/kg PO once daily for 21 days, alone (FIG. 1C) or with anti-PD-1 antibody 150 μg IP Days 0, 3, 6, 10 (FIG. 1D)): no instances in which complete regression was observed
- CT26 tumor growth ([1]; CFI-400945 6.5 mg/kg PO once daily for 21 days, single agent (FIG. 1C)): tumor growth delay
- CT26 tumors with regression ([1]; CFI-400945 13 mg/kg PO twice a week for 21 days, alone (FIG. 1E) or with anti-PD-1 antibody 150 μg IP Days 0, 3, 6, 10 (FIG. 1F)): one of the eight
- CT26 tumors with regression ([1]; CFI-400945 52 mg/kg PO once weekly for 21 days, alone (FIG. 1G) or with anti-PD-1 antibody 150 μg IP Days 0, 3, 6, 10 (FIG. 1H)): one of the eight
- tolerability of dosage ([2]; CFI-400945 6.5 mg/kg PO daily for 21 days): well-tolerated
- body weight loss or animal death ([2]; CFI-400945 6.5 mg/kg PO daily for 21 days, data not shown): lack of any significant body weight loss (data not shown) or any animal death
- tolerability of dosage ([2]; CFI-400945 13 mg/kg PO twice a week for 21 days): well-tolerated
- tolerability of dosage ([2]; CFI-400945 52 mg/kg PO once weekly for 21 days): well-tolerated
- animals found dead [2, 5]: two
- tolerability of dosage [2, 5]: not be well-tolerated
- tumor growth after re-challenge with CT26 cells on Day 36 ([3]; animals with complete regression after CFI-400945 13 mg/kg BIW, alone (FIG. 1E) or + anti-PD-1 antibody (FIG. 1F)): tumors did not grow in any mouse
- tumor growth after re-challenge with CT26 cells on Day 36 ([3]; animals with complete regression after CFI-400945 52 mg/kg QW, alone (FIG. 1G) or + anti-PD-1 antibody (FIG. 1H)): tumors did not grow in any mouse
- regression of MC38 tumors [4]: Regression was also observed
